Laboratory results: patent publication US9522888B2, “Substituted bicyclic compounds” (BRISTOL-MYERS SQUIBB COMPANY, priority 2014, dated 2016)

Columns and labels:
circulating lymphocytes = assay: Blood Lymphocyte Reduction (BLR) assay in rat; type: in vivo, Lewis rats; conditions: blood lymphocytes, oral, 0.1 mg/kg, 24 hr post-dose
Description: Blood Lymphocyte Reduction (BLR) Assay in Rodent:
Lewis rats or BALB/c mice were dosed orally with vehicle alone (polyethylene glycol 300, “PEG300”) or with test compounds. Compounds were dosed as a solution or suspension in the vehicle, adjusted to reflect the free amount of test article in the event that salt forms are utilized. Blood was drawn at 24 hr and blood lymphocyte counts were determined on an ADVIA 120 Hematology Analyzer (Siemens Healthcare Diagnostics). The results were measured as a reduction in the percentage of circulating lymphocytes as compared to the vehicle treated group at the time of measurement. The results represent the average results of all animals within each treatment group (n=2-4).

[1] = target: S1P1 (membranes prepared from S1P1/CHO cells) (Homo sapiens (Human), UniProt P21453); assay: Receptor [35S] GTPγS binding assay (S1P1 GTPγS); type: biochemical; conditions: phosphate examples; read-out: S1P1 GTPγS
Sequence of S1P1 (membranes prepared from S1P1/CHO cells) (P21453 whole entry): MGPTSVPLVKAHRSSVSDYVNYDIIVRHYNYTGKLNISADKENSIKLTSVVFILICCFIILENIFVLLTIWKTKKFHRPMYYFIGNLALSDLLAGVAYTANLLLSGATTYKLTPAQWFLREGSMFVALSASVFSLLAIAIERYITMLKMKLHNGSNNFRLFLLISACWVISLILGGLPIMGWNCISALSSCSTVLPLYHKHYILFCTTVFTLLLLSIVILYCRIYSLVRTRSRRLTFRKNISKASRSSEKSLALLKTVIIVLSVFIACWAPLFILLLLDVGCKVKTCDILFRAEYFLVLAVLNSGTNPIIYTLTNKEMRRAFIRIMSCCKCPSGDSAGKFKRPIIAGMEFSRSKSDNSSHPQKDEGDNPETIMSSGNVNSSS
Outline: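 Agonist-stimulated [35S]GTPγS binding (0.2 nM final) to S1P1/CHO membranes, 3 μg protein/well, measured after 45 min at room temperature. Buffer contained 10 μM GDP, saponin and fatty-acid-free BSA at pH 7.5. Compounds tested as 11-point 3-fold series; bound label captured on filters, scintillation-counted, EC50 reported.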

hS1P1/CHO cells = hS1P1/CHO cells (Homo sapiens (Human), UniProt P21453); assay: hS1P1 ERK phosphorylation (S1P1 pERK); type: cell-based; conditions: phosphate examples
Sequence of hS1P1/CHO cells (P21453 whole entry): as above
Outline: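 Agonism read as ERK phosphorylation (SureFire pERK) in hS1P1/CHO lysates, normalised to the maximal effect of 10 μM S1P. Cells were held 2 h in serum-free medium, then treated with compound for 7 min at 37° C. in HBSS/20 mM HEPES.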

human S1P1 = human S1P1 (Homo sapiens (Human), UniProt P21453); assay: S1P1 binding assay (33P-S1P radioligand competition, CHO cell membranes); conditions: phosphate examples; read-out: S1P1 Binding
Sequence of human S1P1 (P21453 whole entry): as above
Outline: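 Radioligand is 33P-S1P, competing for membranes from human S1P1-expressing CHO cells. Membranes resuspended in 50 mM HEPES pH 7.5, 100 mM NaCl, 1 mM MgCl2, 2 mM EDTA.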

[2] = target: S1P3 (membranes prepared from EDG3-Gal5-bla HEK293T cells) (Homo sapiens (Human), UniProt Q99500); assay: Receptor [35S] GTPγS binding assay (S1P3 GTPγS); type: biochemical; conditions: phosphate examples; read-out: S1P3 GTPγS
Sequence of S1P3 (membranes prepared from EDG3-Gal5-bla HEK293T cells) (Q99500 whole entry): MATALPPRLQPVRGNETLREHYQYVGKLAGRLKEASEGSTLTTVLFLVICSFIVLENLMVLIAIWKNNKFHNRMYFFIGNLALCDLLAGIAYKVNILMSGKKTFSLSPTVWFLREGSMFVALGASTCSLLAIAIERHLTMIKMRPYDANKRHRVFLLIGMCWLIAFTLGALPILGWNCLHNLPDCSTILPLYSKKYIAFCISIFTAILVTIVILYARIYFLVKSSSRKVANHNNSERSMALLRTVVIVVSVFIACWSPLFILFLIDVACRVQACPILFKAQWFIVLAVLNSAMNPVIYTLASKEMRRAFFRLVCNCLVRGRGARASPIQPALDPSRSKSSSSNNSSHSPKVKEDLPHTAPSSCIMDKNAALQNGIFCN
Outline: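 Membranes (3 μg protein/well) from S1P1/CHO cells or EDG3-Gal5-bla HEK293T cells (S1P3) were incubated 45 min at room temperature with 0.2 nM final [35S]GTPγS in HEPES pH 7.5 buffer with 10 μM GDP, MgCl2 and saponin. Bound label counted after filtration; EC50 from 11-point, 3-fold dilutions.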

Structure (SMILES) | EC50 [1] | EC50 (hS1P1/CHO cells) | IC50 (human S1P1) | EC50 [2] | Percent reduction vs. control at 24 hr post-dose (circulating lymphocytes)
COCCCCC[C@@H]1CCc2cc([C@H]3CC[C@](N)(CO)C3)ccc2C1 [Example 673, ((1R,3S)-1-amino-3-((R)-6-(5-methoxypentyl)-5,6,7,8-tetrahydronaphthalen-2-yl)cyclopentyl)methanol] | – | – | – | – | 62%
CCCCCOC[C@@H]1COc2cc([C@H]3CC[C@](N)(COP(=O)(O)O)C3)ccc2O1 [Example 412, ((1R,3S)-1-amino-3-((R)-2-((pentyloxy)methyl)-2,3-dihydrobenzo[b][1,4]dioxin-6-yl)cyclopentyl)methyl dihydrogen phosphate] | < 10 nM | < 10 nM | < 10 nM | > 625 nM | –
COc1ccc(OC[C@@H]2CCc3cc([C@H]4CC[C@](N)(COP(=O)(O)O)C4)ccc3C2)c(F)c1F [compound 494] | 10 to 100 nM | 10 to 100 nM | 10 to 100 nM | > 625 nM | –
CCCC[C@H]1CCCC2(CCc3cc([C@H]4CC[C@](N)(COP(=O)(O)O)C4)ccc3C2)O1 (stereo partly shown) [compound 632] | 10 to 100 nM | < 10 nM | 10 to 100 nM | > 625 nM | –
N[C@]1(COP(=O)(O)O)CC[C@H](c2ccc3c(c2)CC[C@@H](COc2cccc(OC(F)(F)F)c2)C3)C1 [compound 497] | < 10 nM | < 10 nM | 10 to 100 nM | > 625 nM | –
CC(C)Oc1ccc(C[C@@H]2CCc3cc([C@H]4CC[C@](N)(COP(=O)(O)O)C4)ccc3C2)cc1 [compound 559] | 100 to 1000 nM | 10 to 100 nM | 100 to 1000 nM | > 625 nM | –
CCCCCC[C@H]1COc2cc([C@H]3CC[C@](N)(COP(=O)(O)O)C3)ccc2C1 [compound 424] | 10 to 100 nM | < 10 nM | 10 to 100 nM | > 625 nM | –
COc1cc(OC[C@@H]2CCc3cc([C@H]4CC[C@](N)(COP(=O)(O)O)C4)ccc3C2)ccc1F [compound 485] | 10 to 100 nM | 10 to 100 nM | 10 to 100 nM | > 625 nM | –
COc1ccccc1SC[C@@H]1CCc2cc([C@H]3CC[C@](N)(COP(=O)(O)O)C3)ccc2C1 [compound 527] | < 10 nM | < 10 nM | < 10 nM | > 625 nM | –
N[C@@]1(COP(=O)(O)O)CC[C@@H](c2ccc3c(c2)CC[C@H](CCc2ccc4ccccc4n2)C3)C1 (single isomer, unassigned) [compound 604] | 100 to 1000 nM | 10 to 100 nM | 100 to 1000 nM | > 625 nM | –
COc1ccc(SC[C@@H]2CCc3cc([C@H]4CC[C@](N)(COP(=O)(O)O)C4)ccc3C2)cc1 [compound 529] | 10 to 100 nM | < 10 nM | < 10 nM | > 625 nM | –
COCc1cccc(OC[C@@H]2CCc3cc([C@H]4CC[C@](N)(COP(=O)(O)O)C4)ccc3C2)c1 [compound 480] | < 10 nM | 100 to 1000 nM | 1000 to 10000 nM | > 625 nM | –
COc1cncc(OC[C@@H]2CCc3cc([C@H]4CC[C@](N)(COP(=O)(O)O)C4)ccc3C2)c1 [compound 477] | 10 to 100 nM | < 10 nM | < 10 nM | > 625 nM | –
COc1ccccc1OC[C@@H]1CCc2cc([C@H]3CC[C@](N)(COP(=O)(O)O)C3)ccc2C1 [compound 475] | 10 to 100 nM | < 10 nM | < 10 nM | > 625 nM | –
COc1ccc(F)c(OC[C@@H]2CCc3cc([C@H]4CC[C@](N)(COP(=O)(O)O)C4)ccc3C2)c1 [compound 484] | 10 to 100 nM | 10 to 100 nM | 100 to 1000 nM | > 625 nM | –

Second part, led by results:

EC50 [1] | EC50 (hS1P1/CHO cells) | IC50 (human S1P1) | EC50 [2] | Structure (SMILES) | Percent reduction vs. control at 24 hr post-dose (circulating lymphocytes)
10 to 100 nM | < 10 nM | 10 to 100 nM | > 625 nM | CCCCCCNC(=O)OC1CCc2cc([C@H]3CC[C@@](N)(COP(=O)(O)O)C3)ccc2C1 (stereo partly shown) [compound 626] | –
10 to 100 nM | 10 to 100 nM | 10 to 100 nM | > 625 nM | Cc1ccccc1SC[C@@H]1CCc2cc([C@H]3CC[C@](N)(COP(=O)(O)O)C3)ccc2C1 [compound 520] | –
10 to 100 nM | 10 to 100 nM | < 10 nM | > 625 nM | COc1cccc(/C=C/[C@@H]2CCc3cc([C@H]4CC[C@](N)(COP(=O)(O)O)C4)ccc3C2)c1 [compound 643] | –
10 to 100 nM | < 10 nM | 10 to 100 nM | > 625 nM | CC(C)(C)CSC[C@@H]1CCc2cc([C@H]3CC[C@](N)(COP(=O)(O)O)C3)ccc2C1 [compound 515] | –
10 to 100 nM | < 10 nM | 10 to 100 nM | > 625 nM | CC(C)CSC[C@H]1CCc2cc([C@H]3CC[C@](N)(COP(=O)(O)O)C3)ccc2C1 [compound 509] | –
10 to 100 nM | 10 to 100 nM | 10 to 100 nM | > 625 nM | C=CCC/C=C/[C@@H]1CCc2cc([C@H]3CC[C@](N)(COP(=O)(O)O)C3)ccc2C1 [compound 639] | –
< 10 nM | < 10 nM | < 10 nM | > 625 nM | CCSCC[C@@H]1CCc2cc([C@H]3CC[C@](N)(COP(=O)(O)O)C3)ccc2C1 [compound 533] | –
< 10 nM | < 10 nM | 10 to 100 nM | > 100 nM | CC(C)OCCCC[C@H]1CCc2cc([C@H]3CC[C@](N)(COP(=O)(O)O)C3)ccc2C1 [compound 610] | –
< 10 nM | < 10 nM | 10 to 100 nM | > 625 nM | CC(C)OCCC[C@H]1CCc2cc([C@@H]3CC[C@@](N)(COP(=O)(O)O)C3)ccc2C1 [compound 600] | –
10 to 100 nM | 10 to 100 nM | 10 to 100 nM | > 625 nM | CCCC/C=C/[C@@H]1CCc2cc([C@H]3CC[C@](N)(COP(=O)(O)O)C3)ccc2C1 [compound 636] | –
10 to 100 nM | 10 to 100 nM | 10 to 100 nM | > 625 nM | CCCCC=C[C@H]1CCc2cc([C@H]3CC[C@](N)(COP(=O)(O)O)C3)ccc2C1 [compound 648] | –
10 to 100 nM | < 10 nM | < 10 nM | > 625 nM | CCCCCSC[C@@H]1CCc2cc([C@H]3CC[C@](N)(COP(=O)(O)O)C3)ccc2C1 [compound 513] | –
< 10 nM | 10 to 100 nM | < 10 nM | > 625 nM | CCCCO/N=C(\C)[C@@H]1CCc2cc([C@H]3CC[C@](N)(COP(=O)(O)O)C3)ccc2C1 [compound 665] | –
100 to 1000 nM | 10 to 100 nM | 10 to 100 nM | > 625 nM | N[C@]1(COP(=O)(O)O)CC[C@@H](c2ccc3c(c2)CC[C@@H](CSc2ccccc2)C3)C1 [compound 508] | –
10 to 100 nM | < 10 nM | < 10 nM | > 625 nM | CCC/C=C\CO[C@@H]1CCc2cc([C@H]3CC[C@](N)(COP(=O)(O)O)C3)ccc2C1 [compound 438] | –
10 to 100 nM | 10 to 100 nM | < 10 nM | > 625 nM | N[C@]1(COP(=O)(O)O)CC[C@H](c2ccc3c(c2)CC[C@@H](COCc2ccc(C(F)(F)F)s2)C3)C1 [compound 499] | –
100 to 1000 nM | < 10 nM | 10 to 100 nM | > 625 nM | CCCC[C@@H]1CCCC2(CCc3cc([C@H]4CC[C@](N)(COP(=O)(O)O)C4)ccc3C2)O1 (stereo partly shown) [compound 633] | –
10 to 100 nM | 10 to 100 nM | 10 to 100 nM | > 625 nM | N[C@]1(COP(=O)(O)O)CC[C@H](c2ccc3c(c2)CC[C@@H](Cc2ccccc2)C3)C1 [compound 571] | –
10 to 100 nM | 10 to 100 nM | 10 to 100 nM | > 625 nM | CCCCSC[C@H]1CCc2cc([C@@H]3CC[C@](N)(COP(=O)(O)O)C3)ccc2C1 [compound 505] | –
< 10 nM | 10 to 100 nM | < 10 nM | > 625 nM | N[C@]1(COP(=O)(O)O)CC[C@H](c2ccc3c(c2)CC[C@H](Cc2ccccc2)C3)C1 [compound 572] | –
10 to 100 nM | < 10 nM | < 10 nM | > 625 nM | COCCCOC[C@@H]1CCc2cc([C@H]3CC[C@](N)(COP(=O)(O)O)C3)ccc2C1 [compound 458] | –
10 to 100 nM | < 10 nM | < 10 nM | > 625 nM | CCCCC[C@H]1CCc2cc([C@@H]3CC[C@@](N)(COP(=O)(O)O)C3)ccc2C1 [compound 578] | –
